In patent US20100144793A1, “NOVEL COMPOUNDS FOR THE TREATMENT OF DISEASES ASSOCIATED WITH AMYLOID OR AMYLOID-LIKE PROTEINS” (AC IMMUNE SA, priority 2006, published 2010):
Counter-ions that a name gives are not always drawn.

SMILES	melting point
c1ccc(-c2cc(NCCNc3cc(-c4ccccn4)[nH]n3)n[nH]2)nc1 (as salt: hydrochloride) [Compound 1al, N^1,N^2-bis(5-(Pyridin-2-yl)-1H-pyrazol-3-yl)ethane-1,2-diamine tetra-hydrochloride]	> 250 °C
c1ccc(-c2ccc(-c3cc(NCCNc4cc(-c5ccc(-c6ccccc6)cc5)[nH]n4)n[nH]3)cc2)cc1 (as salt: hydrochloride) [Compound 1am, N^1-(5-(Biphenyl-4-yl)-1H-pyrazol-3-yl)-N^2-(3-(biphenyl-4-yl)-1H-pyrazol-5-yl)ethane-1,2-diamine bishydrochloride]	220 to 222 °C
Cc1ccc(-c2cc(NCC(C)(C)CNc3cc(-c4ccc(C)cc4)[nH]n3)n[nH]2)cc1 (as salt: hydrochloride) [Compound 1an, dihydrochloride]	151 °C
Cc1ccc(-c2cc(NCc3cccc(CNc4cc(-c5ccc(C)cc5)[nH]n4)c3)n[nH]2)cc1 (as salt: hydrochloride) [Compound 1ao, N,N′-(1,3-Phenylenebis(methylene))bis(5-p-tolyl-1H-pyrazol-3-amine) dihydrochloride]	183 °C
Cc1ccc(-c2cc(NCc3ccc(CNc4cc(-c5ccc(C)cc5)[nH]n4)cc3)n[nH]2)cc1 (as salt: hydrochloride) [Compound 1ap, N,N′-(1,4-Phenylenebis(methylene))bis(5-p-tolyl-1H-pyrazol-3-amine) dihydrochloride]	184 °C
c1ccc(-c2cc(NCCNc3cc(-c4ccccc4)[nH]n3)n[nH]2)cc1 (as salt: hydrochloride) [Compound 1e, N^1,N^2-bis(5-Phenyl)-1H-pyrazol-3-yl)ethane-1,2-diamine bishydrochloride]	204 °C
Clc1ccc(-c2cc(NCCNc3cc(-c4ccc(Cl)cc4)[nH]n3)n[nH]2)cc1 (as salt: hydrochloride) [Compound 1f, N^1,N^2-bis(5-(4-Chlorophenyl)-1H-pyrazol-3-yl)ethane-1,2-diamine bishydrochloride]	195 °C
c1csc(-c2cc(NCCNc3cc(-c4cccs4)[nH]n3)n[nH]2)c1 (as salt: hydrochloride) [Compound 1h, N^1,N^2-bis(5-(2-Thienyl)-1H-pyrazol-3-yl)ethane-1,2-diamine bishydrochloride]	147 °C
c1c(NCCNc2cc(C3CC3)[nH]n2)n[nH]c1C1CC1 (as salt: hydrochloride) [Compound 1i, N^1,N^2-bis(5-Cyclopropyl-1H-pyrazol-3-yl)ethane-1,2-diamine bishydrochloride]	205 to 206 °C
c1ccc(Cc2cc(NCCNc3cc(Cc4ccccc4)[nH]n3)n[nH]2)cc1 (as salt: hydrochloride) [Compound 1l, N^1,N^2-bis(5-Benzyl-1H-pyrazol-3-yl)ethane-1,2-diamine dihydrochloride]	177 to 178 °C
c1coc(-c2cc(NCCNc3cc(-c4ccco4)[nH]n3)n[nH]2)c1 (as salt: hydrochloride) [Compound 1m, N^1,N^2-bis(5-(2-Furyl)-1H-pyrazol-3-yl)ethane-1,2-diamine bishydrochloride]	214 to 216 °C
Clc1ccc(-c2c[nH]nc2NCCNc2n[nH]cc2-c2ccc(Cl)cc2)cc1 (as salt: hydrochloride) [Compound 1s, N^1,N^2-bis(4-(4-Chlorophenyl)-1H-pyrazol-3-yl)ethane-1,2-diamine bishydrochloride]	228 °C
c1[nH]nc(NCCNc2n[nH]cc2C2CC2)c1C1CC1 (as salt: hydrochloride) [Compound 1v, N^1,N^2-bis(4-Cyclopropyl-1H-pyrazol-3-yl)ethane-1,2-diamine bishydrochloride]	178 to 182 °C (dec.)
